This is an account of results in patent US9474759B2 (priority 2011, dated 2016).

Assay [1] has as its target PV 3Cpro (codon-optimized, N-terminal 6 His, recombinant) (Poliovirus type 1, UniProt P03300). As to the kind of experiment: biochemical. Also noted: species or system poliovirus (poliomyelitis virus).
The target of a further assay is TGEV 3CL protease (Porcine transmissible gastroenteritis coronavirus, UniProt P0C6Y5). Nature of the assay: FRET-based protease assay, TGEV 3CL protease (Example 5). The assay is classed as biochemical, TGEV Miller strain. The conditions noted are these: TGEV 3CL protease; read-out: IC50 against 3CL protease in the FRET assay. The text has this:
The 3CL proteases are highly conserved among all coronaviruses, and feline coronavirus 3CL protease is closely related TGEV 3CL protease. Therefore we cloned and expressed the TGEV 3CL protease for the FRET assay. The cDNA encoding the full length of 3CL protease of TGEV Miller strain was amplified with RT-PCR as previously described. The primers contained the nucleotide sequence of the 3CL protease for cloning as well as the nucleotides for 6 Histidine in the forward primer. The amplified product was subcloned to pET-28a(+) vector (GenScript, Piscataway, N.J.). The expression and purification of the 3CL protease was performed with a standard method described previously by our lab (Chang et al., 2012b; Takahashi et al., 2012; Tiew et al., 2011).
Our protease inhibitor compounds and commercial cathepsin inhibitors CA074-Me and E64d were prepared in DMSO as stock solutions (10 mM), and further diluted in assay buffer consisting of 20 mM HEPES, 0.4 mM EDTA, 30% glycerol, 120 mM NaCl, and 4 mM DTT at pH 6. […] TGEV 3CL protease at a final concentration of 0.1˜0.2 μM and the substrate (Dabcyl-[…]-Edans; SEQ ID NO:2) at 10 μM were used for the studies. The substrate was purchased from Bachem Americas, Inc (Torrance, Calif.). Compounds at various concentrations (0˜50 μM) were pre-incubated with TGEV 3CL protease in 25 μl for 30 min at 37° C., and the same volume of substrate was added to a 96-well black plate. The mixtures were then incubated at 37° C. for 60 min, and fluorescence readings were obtained on a microplate reader at 360 nm excitation and 480 nm emission wavelengths. The relative fluorescence units (RFU) were calculated by subtracting background (substrate control well without protease) from the fluorescence readings. The dose-dependent FRET inhibition curves were fitted with variable slope (four parameters) using GraphPad Prism software (La Jolla, Calif.) in order to determine the compound concentration that gives a half-maximum response (IC50).

Another assay has as its system TGEV. As to the kind of experiment: Cell-based screening, TGEV in ST cells (Example 2). Also noted: species or system transmissible gastroenteritis virus. The conditions noted are these: Alphacoronavirus 1; ST cells; read-out: Inhibition [ED50 (μM)] against various viruses: Coronavirus, TGEV. As to the method: (§1) 3. Cell-based screening of inhibitor. The effects of each inhibitor on the viral replication were examined. The list of viruses and corresponding cell lines are listed above in Table 2. Briefly, confluent cells were inoculated with virus at a MOI of 5 or 0.05 for 1 hr, and medium was replaced with medium containing mock-medium or each compound (up to 100 μM). The virus infected cells were further incubated for up to 96 hrs, and the replication of virus was measured by TCID50 assay with the 10-fold dilution of each sample used for virus titration (Reed and Muench, 1938). In some viruses, the virus protein and genome expression levels were detected by Western blot analysis and real-time qRT-PCR, respectively, as described below. The IC50s of the compounds were calculated.

Assay [2] addresses T1, MD145 3CLpro (codon-optimized, full-length, N-terminal 6 His, recombinant) (Lordsdale virus, UniProt P54634). As to the kind of experiment: biochemical. Also noted: species or system norovirus strain MD145 (human norovirus GII).
The subject of a further assay is FECV-1683. Nature of the assay: FECV-1683 replication in CRFK cells, TCID50 method. As to conditions: Alphacoronavirus 1, MOI 0.05, mean ± SEM. The class given is cell-based, feline coronavirus. On the procedure:
(§2) Crandell Rees feline kidney (CRFK) cells were maintained in minimal essential medium containing 2-5% fetal bovine serum and antibiotics (chlortetracycline [25 μg/ml], penicillin [250 U/ml], and streptomycin [250 μg/ml]). FIPV WSU 79-1146 and FECV WSU 79-1683 strains are the prototypes of serotype II FIPV or FECV, respectively, and were purchased from ATCC (Manassas, Va.).
(§3) The cells were further incubated in the presence of each compound for 1 hr at 37° C. Then […] or FECV-1683 was inoculated to the cells at a multiplicity of infection (MOI) of 0.05 or 5.
(§4) b. TCID50 Method. A standard TCID50 method with the 10-fold dilution of each sample was used for virus titration.

The test system of the next assay is Teschovirus. Nature of the assay: organism not typed. The assay is classed as cell-based, porcine teschovirus. The conditions noted are these: read-out: Inhibition [ED50 (μM)] against various viruses: Picornavirus, Teschovirus.
Assay [3] has as its system MNV-1. As to the kind of experiment: Cell-based screening, MNV-1 in RAW267.4 cells (Example 2). Also noted: species or system murine norovirus. As to conditions: Norwalk virus; RAW267.4 cells; read-out: Inhibition [ED50 (μM)] against various viruses: Calicivirus, MNV-1. As to the method:
as §1

A further assay has as its system 229E. Nature of the assay: Cell-based screening, 229E in MRC-5 cells (Example 2). As to conditions: Human coronavirus 229E, MRC5; MRC-5 cells; read-out: Inhibition [ED50 (μM)] against various viruses: Coronavirus, 229E. On the procedure:
as §1

The target in assay [4] is recombinant 3C or 3CL of MD145 (Norovirus Hu/GII.4/MD145-12/1987/US (Maryland virus), UniProt Q8V0P3). Nature of the assay: FRET protease assay, MD145 3CL (Example 2). The class given is biochemical, norovirus strain MD145.
For assay [5], the target named is NV 3CLpro (codon-optimized, full-length, N-terminal 6 His, recombinant) (Norovirus, UniProt Q83883). Nature of the assay: biochemical. Also noted: species or system norovirus strain Norwalk.
In assay [6] the target is FMDV 3Cpro (codon-optimized, N-terminal 6 His, recombinant) (Foot-and-mouth disease virus serotype O, UniProt P03305). Nature of the assay: biochemical.
Assay [7] relates to FCV. As to the kind of experiment: Cell culture system, FCV replication in CRFK cells (Example 3). The class given is cell-based, feline calicivirus. The conditions noted are these: Feline calicivirus; cell-based assay, CRFK cells; read-out: IC50 against FCV replication.
Assay [8] has as its system Norwalk virus (HG23 cells). Nature of the assay: microbe, parasite or virus in culture. The assay is classed as cell-based. The conditions noted are these: HG23, read-out: Inhibition [ED50 (μM)] against various viruses: Calicivirus, HG23 cells.
In assay [9] the target is MNV-1 3CLpro (codon-optimized, full-length, recombinant) (Norovirus, UniProt Q80J95). As to the kind of experiment: biochemical. Also noted: species or system murine norovirus-1 (GV).
In the next assay the test system is FIPV. As to the kind of experiment: Cell-based screening, FIPV in CRFK cells (Example 2). Also noted: species or system feline infectious peritonitis virus. The conditions noted are these: Alphacoronavirus 1; CRFK cells; read-out: Inhibition [ED50 (μM)] against various viruses: Coronavirus, FIPV. On the procedure:
as §1

For another assay, the system named is EV71. Nature of the assay: Cell-based screening, EV71 in Vero cells (Example 2). Also noted: species or system enterovirus 71. As to conditions: Enterovirus A, EV71; Vero cells; read-out: Inhibition [ED50 (μM)] against various viruses: Picornavirus, EV71. As to the method: as §1
The test system of assay [10] is MNV-1. As to the kind of experiment: microbe, parasite or virus in culture. The conditions noted are these: Norwalk virus, read-out: Initial IC50 values against MNV-1.
In the next assay the test system is HAV. As to the kind of experiment: Cell-based screening, HAV (Example 2). Also noted: species or system hepatitis A virus. The conditions noted are these: Picornaviridae; read-out: Inhibition [ED50 (μM)] against various viruses: Picornavirus, HAV. As to the method:
as §1

The test system of another assay is FIPV-1146. As to the kind of experiment: FIPV-1146 replication in CRFK cells, TCID50 method. The assay is classed as cell-based, feline coronavirus. The conditions noted are these: Alphacoronavirus 1, MOI 0.05, mean ± SEM. On the procedure:
as §2, §3, §4

Assay [11] deals with FCV. Nature of the assay: Cell-based screening, FCV in CRFK cells (Example 2). The conditions noted are these: Feline calicivirus; CRFK cells; read-out: Inhibition [ED50 (μM)] against various viruses: Calicivirus, FCV. As to the method:
as §1

Assay [12] concerns the target T1, MD145 3CLpro (codon-optimized, full-length, N-terminal 6 His, recombinant). Nature of the assay: biochemical. Also noted: species or system norovirus strain MD145.
In assay [13] the target is HRV 3Cpro (recombinant, purchased from EMD chemicals) (Human rhinovirus 14, UniProt P03303). As to the kind of experiment: biochemical.

Structures are written as SMILES. Like-named read-outs stand apart in the source and are kept apart here.

PV 3Cpro (codon-optimized, N-terminal 6 His, recombinant), sequence (P03300 1566-1748 limits assumed): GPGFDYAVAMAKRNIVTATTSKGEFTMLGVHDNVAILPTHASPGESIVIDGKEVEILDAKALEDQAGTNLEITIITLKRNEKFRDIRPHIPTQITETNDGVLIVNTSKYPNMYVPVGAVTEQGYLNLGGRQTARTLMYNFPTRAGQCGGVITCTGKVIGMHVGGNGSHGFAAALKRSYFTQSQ
NV 3CLpro (codon-optimized, full-length, N-terminal 6 His, recombinant), sequence (Q83883 1101-1281): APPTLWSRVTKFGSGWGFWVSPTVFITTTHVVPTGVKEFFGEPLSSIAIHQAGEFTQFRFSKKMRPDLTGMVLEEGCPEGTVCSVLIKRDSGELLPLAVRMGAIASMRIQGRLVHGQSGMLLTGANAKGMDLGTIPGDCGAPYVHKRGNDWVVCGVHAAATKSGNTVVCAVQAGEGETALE
T1 sequence (P54634 1009-1189): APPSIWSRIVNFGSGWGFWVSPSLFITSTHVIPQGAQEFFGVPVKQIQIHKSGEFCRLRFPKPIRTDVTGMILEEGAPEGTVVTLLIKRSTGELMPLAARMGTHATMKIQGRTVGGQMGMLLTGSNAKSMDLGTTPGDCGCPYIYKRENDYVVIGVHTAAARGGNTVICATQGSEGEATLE
recombinant 3C or 3CL of MD145, sequence (Q8V0P3 entry or part of it): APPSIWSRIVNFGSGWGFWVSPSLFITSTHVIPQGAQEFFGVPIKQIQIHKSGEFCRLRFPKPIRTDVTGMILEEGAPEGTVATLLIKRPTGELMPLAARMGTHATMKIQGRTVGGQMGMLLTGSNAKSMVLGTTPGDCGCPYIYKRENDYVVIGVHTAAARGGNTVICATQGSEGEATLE
MNV-1 3CLpro (codon-optimized, full-length, recombinant), sequence (Q80J95 995-1177): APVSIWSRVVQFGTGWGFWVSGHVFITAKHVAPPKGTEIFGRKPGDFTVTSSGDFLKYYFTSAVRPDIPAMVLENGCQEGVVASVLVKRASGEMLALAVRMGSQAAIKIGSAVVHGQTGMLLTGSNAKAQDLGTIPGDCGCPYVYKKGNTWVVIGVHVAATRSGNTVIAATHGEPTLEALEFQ
HRV 3Cpro (recombinant, purchased from EMD chemicals), sequence (P03303 1538-1719): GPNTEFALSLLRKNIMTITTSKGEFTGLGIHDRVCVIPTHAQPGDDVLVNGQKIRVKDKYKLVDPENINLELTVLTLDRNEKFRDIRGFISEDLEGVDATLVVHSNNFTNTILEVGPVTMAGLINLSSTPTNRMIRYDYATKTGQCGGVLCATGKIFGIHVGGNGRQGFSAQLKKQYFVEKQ
FMDV 3Cpro (codon-optimized, N-terminal 6 His, recombinant), sequence (P03305 1650-1862 limits assumed): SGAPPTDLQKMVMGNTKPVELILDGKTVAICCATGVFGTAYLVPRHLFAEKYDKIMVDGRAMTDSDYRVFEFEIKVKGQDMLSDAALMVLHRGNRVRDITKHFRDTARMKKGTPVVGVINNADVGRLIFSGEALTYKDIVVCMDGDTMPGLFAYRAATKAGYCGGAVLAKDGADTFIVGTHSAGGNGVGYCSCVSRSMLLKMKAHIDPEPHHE
TGEV 3CL protease, sequence (P0C6Y5 2879-3180): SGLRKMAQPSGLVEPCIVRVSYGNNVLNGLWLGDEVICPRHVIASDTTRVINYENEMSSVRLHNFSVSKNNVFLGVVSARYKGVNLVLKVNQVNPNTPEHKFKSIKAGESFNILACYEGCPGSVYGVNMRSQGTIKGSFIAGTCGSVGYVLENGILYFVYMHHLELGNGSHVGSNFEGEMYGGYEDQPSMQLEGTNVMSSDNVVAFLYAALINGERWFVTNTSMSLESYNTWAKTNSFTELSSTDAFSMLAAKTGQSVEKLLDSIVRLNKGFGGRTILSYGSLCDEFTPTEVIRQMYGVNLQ

For `CC(C)C[C@H](NC(=O)OCc1ccccc1)C(=O)N[C@@H](CC1CCNC1=O)C(O)S(=O)(=O)O` (some centres unmarked) [GC376], the half-maximal inhibitory concentration (IC50) in [1] is 1770 ± 310 nM; at TGEV 3CL protease it was 820 nM; in assay [2], 960 nM; in assay [4], 9.8 µM; in assay [5] it was 490 ± 50 nM; in [6], 1160 ± 750 nM. Besides, the values for the half-maximal inhibitory concentration (IC50) (in the assay with FCV [7]; in assay [9]; with MNV-1 [10]) were 35000 nM, 1120 nM and 6200 to 7100 nM, respectively. The EC50 with TGEV came to 0.15 µM; in the assay on FECV-1683 (24 hr post infection, read-out: Inhibition [ED50 (μM)] against FECV-1683, 24 hrs) it was 0.17 ± 0.11 µM; with FECV-1683 (48 hr post infection, read-out: Inhibition [ED50 (μM)] against FECV-1683, 48 hrs), 0.28 ± 0.1 µM; in the assay on Teschovirus, 0.15 µM; in the assay on MNV-1 [3], 5.3 µM; in the assay on 229E, 0.3 µM. The EC50 in [8] is 1.8 µM; with FIPV, 0.2 µM; in the assay on EV71, 10 µM; in the assay on HAV, 50 µM; in the assay on FIPV-1146 (24 hr post infection, read-out: Inhibition [ED50 (μM)] against FIPV-1146, 24 hrs), 0.15 ± 0.05 µM; in the assay on FIPV-1146 (48 hr post infection, read-out: Inhibition [ED50 (μM)] against FIPV-1146, 48 hrs), 0.3 ± 0.1 µM. The EC50 in the assay on FCV [11] came to 35 µM.
With `CCOC(=O)/C=C/[C@H](C[C@@H]1CCNC1=O)NC(=O)[C@@H](CC(=O)[C@@H](NC(=O)c1cc(C)on1)C(C)C)Cc1ccc(F)cc1` [Rupintrivir, reference compound], the IC50 in [1] is 1830 ± 380 nM; in assay [12], 700 ± 190 nM; in assay [5], 830 ± 190 nM; in assay [13], 340 ± 50 nM.

For orientation: IC50 means the concentration that inhibits the measured activity by half.
